Test results from US11464749B2, “Bismuth-thiol compositions and methods of use” (Microbion Corporation, priority 2018, dated 2022).
Marks after values point to notes of the source that are not given here.

Assays:
Assay in all cases: Broth microdilution antifungal susceptibility (Example 13)
Type in all cases: cell-based
Candida albicans = test system: Candida albicans
Candida glabrata = test system: Candida glabrata
Candida krusei = test system: Candida krusei
Candida auris = test system: Candida auris
A. niger = A. niger ATCC 29508
A. terreus = A. terreus MMX 8229
A. fumigatus = conditions: for MIC0: comparators, read time not given
A. flavus = conditions: for MIC0: comparators, read time not given
[1] = isolate ATCC 90028 (Susceptible), 24 hr
[2] = isolate ATCC 204276 (MICA-R), 24 hr
[3] = isolate ATCC MYA-2732 (FLU-R, VORI-I), 24 hr
[4] = isolate MMX 7053 (Susceptible), 24 hr
[5] = isolate MMX 7067 (FLU-R, VORI-R), 24 hr
[6] = isolate MMX 7403 (Susceptible), 24 hr
[7] = isolate MMX 7424 (CASP-R, MICA-R), 24 hr
[8] = isolate MMX 7430 (Susceptible), 24 hr
[9] = isolate MMX 7437 (FLU-I), 24 hr
[10] = isolate ATCC 90030 (Susceptible)
[11] = isolate ATCC MYA-2950 (Susceptible)
[12] = isolate MMX 7103 (CASP-R, MICA-R)
[13] = isolate MMX 7285 (CASP-R, MICA-R)
[14] = isolate MMX 7307 (CASP-R, MICA-R, FLU-R)
[15] = isolate ATCC 14243 (Susceptible)
[16] = isolate ATCC 96685 (Susceptible)
[17] = isolate MMX 9878 (MICA-I, VORI-I)
[18] = isolate MMX 9863 (FLU-R, VORI-R)
[19] = isolate MMX 9864 (FLU-R, VORI-R)
[20] = isolate MMX 9865 (FLU-R, VORI-R)
[21] = isolate MMX 9866 (FLU-R, VORI-R)
[22] = isolate MMX 9867 (FLU-R, VORI-R)
[23] = isolate MMX 9868 (FLU-R, VORI-R)
[24] = isolate MMX 9869 (FLU-R, VORI-R)
[25] = isolate MMX 9870 (FLU-R, VORI-R)
[26] = comparators, read time not given
[27] = 48 hr only, insufficient growth for 24 hr read

C[C@@H]1[C@H](O)[C@@H](C)/C=C/C=C/C=C/C=C/C=C/C=C/C=C/[C@H](O[C@@H]2O[C@H](C)[C@@H](O)[C@H](N)[C@@H]2O)C[C@@H]2O[C@](O)(C[C@@H](O)C[C@@H](O)[C@H](O)CC[C@@H](O)C[C@@H](O)CC(=O)O[C@H]1C)C[C@H](O)[C@H]2C(=O)O [AMP B]
MIC0 (complete inhibition) (Candida albicans; [1]): 0.25 µg/mL
MIC0 (complete inhibition) (Candida albicans; [2]): 0.25 µg/mL
MIC0 (complete inhibition) (Candida albicans; [3]): 0.25 µg/mL
MIC0 (complete inhibition) (Candida albicans; [4]): 0.12 µg/mL
MIC0 (complete inhibition) (Candida albicans; [5]): 0.25 µg/mL
MIC0 (complete inhibition) (Candida albicans; [6]): 0.25 µg/mL
MIC0 (complete inhibition) (Candida albicans; [7]): 0.25 µg/mL
MIC0 (complete inhibition) (Candida albicans; [8]): 0.25 µg/mL
MIC0 (complete inhibition) (Candida albicans; [9]): 0.25 µg/mL
MIC0 (complete inhibition) (Candida albicans; isolate MMX 7445 (FLU-R, VORI-R), 24 hr): 0.12 µg/mL
MIC0 (complete inhibition) (Candida glabrata; [10]): 0.25 µg/mL
MIC0 (complete inhibition) (Candida glabrata; [11]): 0.12 µg/mL
MIC0 (complete inhibition) (Candida glabrata; isolate MMX 7087 (Susceptible)): 0.12 µg/mL
MIC0 (complete inhibition) (Candida glabrata; isolate MMX 7093 (FLU-R)): 0.25 µg/mL
MIC0 (complete inhibition) (Candida glabrata; isolate MMX 7101 (FLU-R)): 0.25 µg/mL
MIC0 (complete inhibition) (Candida glabrata; [12]): 0.25 µg/mL
MIC0 (complete inhibition) (Candida glabrata; isolate MMX 7111 (Susceptible)): 0.25 µg/mL
MIC0 (complete inhibition) (Candida glabrata; [13]): 0.25 µg/mL
MIC0 (complete inhibition) (Candida glabrata; [14]): 0.25 µg/mL
MIC0 (complete inhibition) (Candida glabrata; isolate MMX 7549 (Susceptible)): 0.25 µg/mL
MIC0 (complete inhibition) (Candida krusei; isolate ATCC 6258 (MICA-I)): 0.5 µg/mL
MIC0 (complete inhibition) (Candida krusei; [15]): 0.25 µg/mL
MIC0 (complete inhibition) (Candida krusei; [16]): 0.5 µg/mL
MIC0 (complete inhibition) (Candida krusei; isolate MMX 7125 (Susceptible)): 0.5 µg/mL
MIC0 (complete inhibition) (Candida krusei; isolate MMX 7128 (Susceptible)): 0.5 µg/mL
MIC0 (complete inhibition) (Candida krusei; isolate MMX 7141 (Susceptible)): 0.25 µg/mL
MIC0 (complete inhibition) (Candida krusei; isolate MMX 7153 (MICA-R)): 0.5 µg/mL
MIC0 (complete inhibition) (Candida krusei; isolate MMX 7155 (Susceptible)): 0.25 µg/mL
MIC0 (complete inhibition) (Candida krusei; isolate MMX 7563 (Susceptible)): 0.5 µg/mL
MIC0 (complete inhibition) (Candida krusei; [17]): 0.5 µg/mL
MIC0 (complete inhibition) (Candida auris; isolate MMX 9862 (Susceptible)): 0.25 µg/mL
MIC0 (complete inhibition) (Candida auris; [18]): 0.12 µg/mL
MIC0 (complete inhibition) (Candida auris; [19]): 0.25 µg/mL
MIC0 (complete inhibition) (Candida auris; [20]): 0.25 µg/mL
MIC0 (complete inhibition) (Candida auris; [21]): 0.5 µg/mL
MIC0 (complete inhibition) (Candida auris; [22]): 0.5 µg/mL
MIC0 (complete inhibition) (Candida auris; [23]): 0.25 µg/mL
MIC0 (complete inhibition) (Candida auris; [24]): 1 µg/mL
MIC0 (complete inhibition) (Candida auris; [25]): 1 µg/mL
MIC0 (complete inhibition) (Candida auris; isolate MMX 9871 (Susceptible)): 1 µg/mL
MIC0 (A. niger; [26]): 0.25 µg/mL
MIC0 (A. terreus; [26]): 0.25 µg/mL
MIC0 (A. fumigatus; A. fumigatus ATCC 204305): 1 µg/mL
MIC0 (A. fumigatus; A. fumigatus ATCC MYA-3626): 1 µg/mL
MIC0 (A. fumigatus; A. fumigatus MMX 5934): 1 µg/mL
MIC0 (A. fumigatus; A. fumigatus MMX 5938): 1 µg/mL
MIC0 (A. fumigatus; A. fumigatus MMX 5939): 1 µg/mL
MIC0 (A. flavus; A. flavus ATCC 22546): 1 µg/mL
MIC0 (A. flavus; A. flavus ATCC 204304): 1 µg/mL
MIC0 (A. flavus; A. flavus MMX 7935): 1 µg/mL

CC[C@H](C)C[C@H](C)CCCCCCCCC(=O)N[C@H]1C[C@@H](O)[C@@H](NCCN)NC(=O)[C@@H]2[C@@H](O)CCN2C(=O)[C@H]([C@H](O)CCN)NC(=O)[C@H]([C@H](O)[C@@H](O)c2ccc(O)cc2)NC(=O)[C@@H]2C[C@@H](O)CN2C(=O)[C@H]([C@@H](C)O)NC1=O [CASP]
MIC2 (50% inhibition) (Candida albicans; [1]): 0.06 µg/mL
MIC2 (50% inhibition) (Candida albicans; [2]): 0.25 µg/mL
MIC2 (50% inhibition) (Candida albicans; [3]): 0.06 µg/mL
MIC2 (50% inhibition) (Candida albicans; [4]): 0.06 µg/mL
MIC2 (50% inhibition) (Candida albicans; [5]): 0.06 µg/mL
MIC2 (50% inhibition) (Candida albicans; [6]): 0.06 µg/mL
MIC2 (50% inhibition) (Candida albicans; [7]): 8 µg/mL
MIC2 (50% inhibition) (Candida albicans; [8]): 0.06 µg/mL
MIC2 (50% inhibition) (Candida albicans; [9]): 0.06 µg/mL
MIC2 (50% inhibition) (Candida albicans; isolate MMX 7445 (FLU-R, VORI-R), result after 48 hr incubation (insufficient growth at 24 hr)): 0.06^a μg/mL
MIC2 (50% inhibition) (Candida glabrata; [10]): 0.12 µg/mL
MIC2 (50% inhibition) (Candida glabrata; [11]): 0.12 µg/mL
MIC2 (50% inhibition) (Candida glabrata; isolate MMX 7087 (Susceptible)): 0.12 µg/mL
MIC2 (50% inhibition) (Candida glabrata; isolate MMX 7093 (FLU-R)): 0.12 µg/mL
MIC2 (50% inhibition) (Candida glabrata; isolate MMX 7101 (FLU-R)): 0.12 µg/mL
MIC2 (50% inhibition) (Candida glabrata; [12]): >8 µg/mL
MIC2 (50% inhibition) (Candida glabrata; isolate MMX 7111 (Susceptible)): 0.12 µg/mL
MIC2 (50% inhibition) (Candida glabrata; [13]): 0.5 µg/mL
MIC2 (50% inhibition) (Candida glabrata; [14]): >8 µg/mL
MIC2 (50% inhibition) (Candida glabrata; isolate MMX 7549 (Susceptible)): 0.06 µg/mL
MIC2 (50% inhibition) (Candida krusei; isolate ATCC 6258 (MICA-I)): 0.25 µg/mL
MIC2 (50% inhibition) (Candida krusei; [15]): 0.012 µg/mL
MIC2 (50% inhibition) (Candida krusei; [16]): 0.12 µg/mL
MIC2 (50% inhibition) (Candida krusei; isolate MMX 7125 (Susceptible)): 0.25 µg/mL
MIC2 (50% inhibition) (Candida krusei; isolate MMX 7128 (Susceptible)): 0.25 µg/mL
MIC2 (50% inhibition) (Candida krusei; isolate MMX 7141 (Susceptible)): 0.25 µg/mL
MIC2 (50% inhibition) (Candida krusei; isolate MMX 7153 (MICA-R)): 0.25 µg/mL
MIC2 (50% inhibition) (Candida krusei; isolate MMX 7155 (Susceptible)): 0.25 µg/mL
MIC2 (50% inhibition) (Candida krusei; isolate MMX 7563 (Susceptible)): 0.12 µg/mL
MIC2 (50% inhibition) (Candida krusei; [17]): 0.25 µg/mL
MIC2 (50% inhibition) (Candida auris; isolate MMX 9862 (Susceptible)): 0.12 µg/mL
MIC2 (50% inhibition) (Candida auris; [18]): 0.12^b μg/mL
MIC2 (50% inhibition) (Candida auris; [19]): 0.25^b μg/mL
MIC2 (50% inhibition) (Candida auris; [20]): 0.25^b μg/mL
MIC2 (50% inhibition) (Candida auris; [21]): 0.12^b μg/mL
MIC2 (50% inhibition) (Candida auris; [22]): 0.12 µg/mL
MIC2 (50% inhibition) (Candida auris; [23]): 0.25 µg/mL
MIC2 (50% inhibition) (Candida auris; [24]): 0.25 µg/mL
MIC2 (50% inhibition) (Candida auris; [25]): 0.25 µg/mL
MIC2 (50% inhibition) (Candida auris; isolate MMX 9871 (Susceptible)): 0.25^b μg/mL
MEC (minimum effective concentration) (A. niger; [27]): 0.06^b μg/mL
MEC (minimum effective concentration) (A. terreus; [27]): 0.12^b μg/mL
MEC (minimum effective concentration) (A. fumigatus; A. fumigatus ATCC 204305): 0.25 µg/mL
MEC (minimum effective concentration) (A. fumigatus; A. fumigatus ATCC MYA-3626): 0.06 µg/mL
MEC (minimum effective concentration) (A. fumigatus; A. fumigatus MMX 5934): 0.12 µg/mL
MEC (minimum effective concentration) (A. fumigatus; A. fumigatus MMX 5938, 48 hr only, insufficient growth for 24 hr read): 0.12^b μg/mL
MEC (minimum effective concentration) (A. fumigatus; A. fumigatus MMX 5939): 0.12 µg/mL
MEC (minimum effective concentration) (A. flavus; A. flavus ATCC 22546): 0.06 µg/mL
MEC (minimum effective concentration) (A. flavus; A. flavus ATCC 204304): 0.06 µg/mL
MEC (minimum effective concentration) (A. flavus; A. flavus MMX 7935): 0.03 µg/mL
